The values that follow are results of earlier work, collected in patent US9006292B2, “Metadichol® liquid and gel nanoparticle formulations” (NanoRx, Inc., priority 2013, dated 2015).

For series [1] the following is noted: topical, phase I trial of 14 patients.
Series [2] has as its system P. falciparum.
Series [3] concerns RDW. The note with it: 6 months.
Series [4] deals with Lp(a). The note with it: in vivo.

Read-outs that look alike come from different tables or passages of the source.

Regarding `C=C1/C(=C\C=C2/CCC[C@]3(C)[C@@H]([C@H](C)CCCC(C)(C)O)CC[C@@H]23)C[C@@H](O)C[C@@H]1O` [1,25-dihydroxycholecalciferol], in series [1], the “prevention of chemotherapy-induced alopecia” value is “failed to show efficacy”. Moreover, in series [2] (low doses), the “growth of P. falciparum in culture” value is reported as “inhibitory”.
Consider `C=C1/C(=C\C=C2/CCC[C@]3(C)[C@@H]([C@H](C)CCCC(C)C)CC[C@@H]23)C[C@@H](O)C[C@@H]1O` [1-hydroxy Vitamin D-3], for which the “growth of P. falciparum in culture” value in series [2] (low doses) is reported as “inhibitory”.
As to `C=C1CC[C@H](O)C/C1=C/C=C1\CCC[C@]2(C)[C@@H]([C@H](C)CCCC(C)(C)O)CC[C@@H]12` [25-hydroxy vitamin D3], the “growth of P. falciparum in culture” value in series [2] (low doses) is reported as “inhibitory”.
In the case of `COCCc1ccc(OCC(O)CNC(C)C)cc1` (stereo not drawn) [Metoprolol], the RDW in series [3] (100 mg/day, n=35, from 15.6) is on record as 15.45.
Regarding `OC(CNCC(O)C1CCc2cc(F)ccc2O1)C1CCc2cc(F)ccc2O1` (stereo not drawn) [Nebivolol], the RDW in series [3] (5 mg/d, n=37, from 15.8) is reported as 15.
As for `C=C1CC[C@H](O)C/C1=C/C=C1\CCC[C@]2(C)[C@@H]([C@H](C)/C=C/[C@H](C)C(C)C)CC[C@@H]12` [vitamin D-2], the “growth of P. falciparum in culture” value in series [2] (higher levels) was “inhibitory”.
Consider `C=C1CC[C@H](O)C/C1=C/C=C1\CCC[C@]2(C)[C@@H]([C@H](C)CCCC(C)C)CC[C@@H]12` [vitamin D-3], for which the “growth of P. falciparum in culture” value in series [2] (higher levels) is reported as “inhibitory”.
For the molecule “Human growth hormone: Human growth hormone, cited as raising Lp(a)”, the “increase of Lp(a)” value in series [4] is on record as “up to 120%”.
